Numbering of substitutions follows the chain as printed. Where “and” joins values, the source holds several entries; their conditions need not be identical. Equal values may be shown once. Entries after “also recorded” stand apart in the source; their conditions may differ. Read-outs that look alike come from different tables or passages of the source.

Usually Kd stands for the equilibrium constant for the complex coming apart.

The target of assay [1] is T1, McinOBP1-wt (Macrocentrus cingulum, UniProt X2D9T4). Put plainly: Competitive fluorescence binding assay, displacement of 1-NPN. The conditions noted are these: for binding to McinOBP1-wt (in words): displacement of 1-NPN. The protocol: (§1) Fluorescence binding assays were recorded on Shimadzu fluorescence spectrophotometer (Shimadzu, Japan) with a 1 cm light path quartz cuvette; both excitation and emission silts widths were 5 nm. The probe was excited at 337 nm and emission spectra were recorded between 350 and 500 nm. […] For determining the bound ligand from the intensity values of fluorescence emission assuming that the proteins were 100% active, with a stoichiometry of 1∶1 (protein:ligand) at saturation. The GraphPad Prism 5 (GraphPad Software, Inc.) was used to estimate the K1–NPN (KD of protein complex/1-NPN) values by nonlinear regression for a unique site of binding. Scatchard plots were used to linearize the curves.
T1 sequence (X2D9T4 entry or part of it): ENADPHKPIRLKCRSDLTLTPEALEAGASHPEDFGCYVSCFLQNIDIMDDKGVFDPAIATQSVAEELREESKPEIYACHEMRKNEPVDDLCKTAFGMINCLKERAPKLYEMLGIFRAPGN

Assay [2] deals with T2, McinOBP1-m1 (Val58 to alanine) (Macrocentrus cingulum, UniProt X2D9T4, V58A).
T2 sequence (X2D9T4 21-140 V58A): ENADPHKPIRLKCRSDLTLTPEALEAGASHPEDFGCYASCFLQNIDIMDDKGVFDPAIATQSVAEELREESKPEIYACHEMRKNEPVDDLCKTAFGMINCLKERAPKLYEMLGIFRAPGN
The description is as above.
From the text: (§2) The three mutants of McinOBP1, m1 (mutation of amino acid, valine to alanine at 58 position), m2 (mutation of amino acid, leucine to proline at 62 position) and m3 (mutation of amino acid, glutamic to alanine at 130 position), were developed using the kit of Quick-change lightning site-directed mutagenesis (Stratagene, La Jolla, CA, USA). The McinOBP1-wt/pGEM-T Easy construct was used as a template. The primers were designed manually and mutation sites are underlined as listed below.
as §1

In assay [3] the target is T3, McinOBP1-m2 (Leu62 to proline) (Macrocentrus cingulum, UniProt X2D9T4, L62P).
T3 sequence (X2D9T4 21-140 L62P): T2 sequence (X2D9T4 21-140 V58A) with A38V, L42P
The description is as above.
From the text: as §2, §1

Assay [4] concerns the target T4, McinOBP1-m3 (Glu130 to alanine) (Macrocentrus cingulum, UniProt X2D9T4, E130A).
T4 sequence (X2D9T4 21-140 E130A): T2 sequence (X2D9T4 21-140 V58A) with A38V, E110A
The description is as above.
From the text: as §2, §1

The target in assay [5] is T1, McinOBP1-wt. Put plainly: Fluorescence binding of the probe 1-NPN (direct titration). The conditions noted are these: dissociation constant (KD) of 1-NPN, 2 μM protein, 50 mM Tris-HCl pH 7.4. The protocol:
as §1

For assay [6], the target named is T2, McinOBP1-m1 (Val58 to alanine). Described as above. The conditions noted are these: 2 μM protein, pH 7.4.
From the text: as §2, §1

Assay [7] concerns the target T3, McinOBP1-m2 (Leu62 to proline). Described as above. The settings on record: 2 μM protein, pH 7.4.
From the text: as §2, §1

In assay [8] the target is T4, McinOBP1-m3 (Glu130 to alanine). The description is as above. The conditions noted are these: 2 μM protein, pH 7.4.
From the text: as §2, §1

The mark [9] stands for this setting: McinOBP1-wt, pH 7.4, calculated from IC50 and K1-NPN, read-out: KD (calculated dissociation constant).
[10] abbreviates: read-out: IC50 (ligand concentration displacing 50% of the fluorescence of the McinOBP1/1-NPN complex), McinOBP1-wt, pH 7.4, 2 μM 1-NPN.
The mark [11] stands for this setting: McinOBP1-wt, pH 7.4, 2 μM 1-NPN, read-out: IC50 (given as dash).
[12] abbreviates: McinOBP1-wt, pH 7.4, 2 μM 1-NPN.

`C=CC(=C)CC/C=C(\C)CCC=C(C)C` [β-Farnesene]: on McinOBP1-wt [1] (setting [9]), the Kd was 24.8 µM. The IC50 on McinOBP1-wt [1] (setting [10]) worked out at 28.5 µM.
Turning to `C=C1CC/C=C(\C)CC[C@@H]2[C@@H]1CC2(C)C` [Trans-Caryophelle, β- Caryophelle], the Kd is 6.53 µM on McinOBP1-wt [1] (setting [9]); 66.2 µM in assay [2] (McinOBP1-m1, read-out: KD); 42 µM in assay [3] (McinOBP1-m2, read-out: KD); 41.4 ± 5.38 µM in assay [4] (McinOBP1-m3, listed as trans-caryophelle, read-out: KD); 41.4 µM in assay [4] (McinOBP1-m3, read-out: KD). The IC50 at McinOBP1-wt [1] (setting [10]) is 7.51 µM; in assay [2] (McinOBP1-m1, read-out: IC50) it was 70.7 µM; in assay [3] (McinOBP1-m2, read-out: IC50), 45 µM; in assay [4] (McinOBP1-m3, read-out: IC50), 47.8 µM.
Regarding Hexenal, at McinOBP1-wt [1] (setting [9]), the Kd is 16.4 µM. The IC50 at McinOBP1-wt [1] (setting [10]) turned out to be 18.9 µM.
Take `CC1=CCC2CC1C2(C)C` (stereo not drawn) [α-pinene]: at McinOBP1-wt [1], the IC50 is 17.8 µM and the Kd stood at 15.5 µM.
At McinOBP1-wt [1], `O=Cc1ccccc1` [Benzaldehyde] yielded an IC50 of 17.9 µM and a dissociation constant Kd of 15.6 µM.
With `CCC(C)CCCC(C)C` (centres unmarked) [2,6 dimethyl octane], the “binding to McinOBP1-wt (in words)” value at McinOBP1-wt [1] (McinOBP1-wt) is “no binding affinity”; at McinOBP1-wt [1] (McinOBP1-wt, listed as 2, 6 dimethyl octane), “did not bind”. For the same compound, the IC50 on McinOBP1-wt [1] (setting [11]) was greater than 50 µM.
At McinOBP1-wt [1], `C=C1CCC2CC1C2(C)C` (stereo not drawn) [β-Pinene] had an IC50 of 12.7 µM and a Kd of 10.8 µM.
As to `c1ccc(Nc2cccc3ccccc23)cc1` [1-NPN, N-phenyl-1-naphthylamine], the Kd is ~6.6 µM and 6.6 µM at McinOBP1-wt [5]; 14.6 ± 1.07 µM in assay [6]; 13.7 ± 0.71 µM in assay [7]; 6.53 ± 0.5 µM in assay [8].
With `C=CC(C)(O)CCC=C(C)C` (centres unmarked) [Linalool], on McinOBP1-wt [1], the IC50 was 18.6 µM and binding was put at a Kd of 16.2 µM.
Taken in the same sequence, the figures for `CC(=O)/C=C/C1=C(C)CCCC1(C)C` [β-Ionone] were 10.3 µM and 8.97 µM.
With `CCCCCCCCC=O` [Nonanal], the IC50 at McinOBP1-wt [1] (setting [12]) was determined as 19.6 µM. Also, the Kd at McinOBP1-wt [1] (setting [9]) is 17 µM.
As for `C=C(C)[C@H]1CC=C(C)CC1` [Limonene], on McinOBP1-wt [1] (setting [9]), the Kd is 18.3 µM. The IC50 at McinOBP1-wt [1] (setting [10]) is 21.1 µM.
On to `CCCCCCCCCC=O` [Decanal], for which the “binding to McinOBP1-wt (in words)” value at McinOBP1-wt [1] (McinOBP1-wt) was “did not bind”; at McinOBP1-wt [1] (McinOBP1-wt, listed as decanal) it was “no binding affinity”. The IC50 at McinOBP1-wt [1] (setting [11]) was greater than 50 µM.
For the compound `CCCCCc1ccco1` [2-Pentylfuran], the IC50 at McinOBP1-wt [1] (setting [12]) is 19.1 µM. The Kd on McinOBP1-wt [1] (setting [9]) was 16.6 µM.
Take `CCCCCCCCCCC=O` [Undecanal]: the “binding to McinOBP1-wt (in words)” value on McinOBP1-wt [1] (McinOBP1-wt) is recorded as “did not bind; also recorded: no binding affinity”. At McinOBP1-wt [1] (setting [11]), the IC50 is greater than 50 µM.
For the compound `CCCCC/C=C/C=O` [Trans-2-Octenal], the IC50 on McinOBP1-wt [1] (setting [12]) is 15.7 µM. For the same compound, on McinOBP1-wt [1] (setting [9]), the Kd is 13.6 µM.
For the compound `CCCCCC/C=C/C=O` [Trans-2-Nonenal], the IC50 worked out at 3.4 µM at McinOBP1-wt [1], 13.6 µM in assay [2], 50.6 µM in assay [3] and 76.7 µM in assay [4]. The Kd on McinOBP1-wt [1] came out at 2.96 µM; in assay [2], 12.7 µM; in assay [3] it was 47.2 µM; in assay [4] (KD, McinOBP1-m3), 66.5 µM.
As for `CC/C=C\CCOC(C)=O` [cis-3-hexenyl acetate], the Kd on McinOBP1-wt [1] (setting [9]) was 10.3 ± 0.71 µM.
`CC/C=C\CCO` [Cis-3-Hexen-1-ol]: the IC50 at McinOBP1-wt [1] stood at 4.61 µM; in assay [2], 23.6 µM; in assay [3], 26.1 µM; in assay [4] it was 29.5 µM. Also, the Kd at McinOBP1-wt [1] amounted to 4 µM; in assay [2], 22.1 µM; in assay [3], 24.3 µM; in assay [4] (KD, McinOBP1-m3), 25.6 µM.
For the compound Farnsene, the Kd on McinOBP1-wt [1] (setting [9]) was 8.93 µM. Also, the IC50 on McinOBP1-wt [1] (setting [10]) is 10.3 µM.
Turning to `CCCCCCC=O` [Heptanal], the IC50 on McinOBP1-wt [1] (setting [12]) is 35.5 µM. In addition, the equilibrium dissociation constant (Kd) at McinOBP1-wt [1] (setting [9]) was 30.9 µM.
`CC/C=C/CCOC(C)=O` [Trans-3-Hexen-1-ol-Acetate]: at McinOBP1-wt [1] (setting [9]), the dissociation constant Kd is 20.7 µM. Further, the IC50 on McinOBP1-wt [1] (setting [10]) was found to be 23.9 µM.
On McinOBP1-wt [1], `CC(=O)/C=C/C1C(C)=CCCC1(C)C` (stereo not drawn) [α-Ionone] showed an IC50 of 12.1 µM and a Kd of 9.3 ± 0.38 µM.

These data come from paper PMC3976273, “Three Amino Acid Residues Bind Corn Odorants to McinOBP1 in the Polyembryonic Endoparasitoid of Macrocentrus cingulum Brischke” (PLoS ONE, 2014).
